ChEMBL document CHEMBL5303573, “Mapping human microbiome drug metabolism by gut bacteria and their genes” (Nature, 2019)

Experiments:
[1] = bifidobacterium adolescentis, 12 h, 2 µM
Description: The drug is tested on Bifidobacterium adolescentis strain: ATCC 15703 for biotransformation. The drug concentrations were measured before and after a 12-h incubation by liquid-chromatography-coupled mass spectrometry (LC–MS)

[2] = The drug is tested on Coprococcus comes strain: ATCC27758 for biotransformation. The drug concentrations were measured before and after a 12-h incubation by liquid-chromatography-coupled mass spectrometry (LC–MS); assay type: ADME; set-up: dose 2 uM, timepoint 0 vs 12 hours; settings: 2 µM
[3] = akkermansia muciniphila, 12 h, 2 µM
Description: The drug is tested on Akkermansia muciniphila strain: ATCC BAA-835 for biotransformation. The drug concentrations were measured before and after a 12-h incubation by liquid-chromatography-coupled mass spectrometry (LC–MS)

[4] = roseburia intestinalis, 12 h, 2 µM
Description: The drug is tested on Roseburia intestinalis strain: L1-82 for biotransformation. The drug concentrations were measured before and after a 12-h incubation by liquid-chromatography-coupled mass spectrometry (LC–MS)

[5] = bacteroides fragilis, 12 h, 2 µM
Description: The drug is tested on Bacteroides fragilis strain: 3397 (T10) for biotransformation. The drug concentrations were measured before and after a 12-h incubation by liquid-chromatography-coupled mass spectrometry (LC–MS)

[6] = bacteroides stercoris, 12 h, 2 µM
Description: The drug is tested on Bacteroides stercoris strain: ATCC43183 for biotransformation. The drug concentrations were measured before and after a 12-h incubation by liquid-chromatography-coupled mass spectrometry (LC–MS)

[7] = The drug is tested on Bacteroides vulgatus strain: ATCC8482 for biotransformation. The drug concentrations were measured before and after a 12-h incubation by liquid-chromatography-coupled mass spectrometry (LC–MS); settings: phocaeicola vulgatus, 2 µM
[8] = limosilactobacillus reuteri cf48-3a, 12 h, 2 µM
Description: The drug is tested on Lactobacillus reuteri CF48-3A strain: BEI HM-102 for biotransformation. The drug concentrations were measured before and after a 12-h incubation by liquid-chromatography-coupled mass spectrometry (LC–MS)

[9] = The drug is tested on Providencia rettgeri strain: DSM1131 for biotransformation. The drug concentrations were measured before and after a 12-h incubation by liquid-chromatography-coupled mass spectrometry (LC–MS); assay type: ADME; set-up: dose 2 uM, timepoint 0 vs 12 hours; settings: 2 µM
[10] = The drug is tested on Eubacterium rectale strain: ATCC33656 for biotransformation. The drug concentrations were measured before and after a 12-h incubation by liquid-chromatography-coupled mass spectrometry (LC–MS); settings: agathobacter rectalis, 2 µM
[11] = The drug is tested on Bifidobacterium ruminantium strain: fecal isolate for biotransformation. The drug concentrations were measured before and after a 12-h incubation by liquid-chromatography-coupled mass spectrometry (LC–MS); settings: 2 µM
[12] = bacteroides fragilis, 12 h, 2 µM; remark: listed apart in the source
Description: The drug is tested on Bacteroides fragilis strain: DS-208 for biotransformation. The drug concentrations were measured before and after a 12-h incubation by liquid-chromatography-coupled mass spectrometry (LC–MS)

[13] = The drug is tested on Clostridium sporogenes strain: ATCC15579 for biotransformation. The drug concentrations were measured before and after a 12-h incubation by liquid-chromatography-coupled mass spectrometry (LC–MS); settings: 2 µM
[14] = The drug is tested on Bacteroides uniformis strain: ATCC8492 for biotransformation. The drug concentrations were measured before and after a 12-h incubation by liquid-chromatography-coupled mass spectrometry (LC–MS); settings: 2 µM
[15] = parabacteroides johnsonii, 12 h, 2 µM
Description: The drug is tested on Parabacteroides johnsonii strain: DSM18315 for biotransformation. The drug concentrations were measured before and after a 12-h incubation by liquid-chromatography-coupled mass spectrometry (LC–MS)

[16] = The drug is tested on Ruminococcus torques strain: ATCC27756 for biotransformation. The drug concentrations were measured before and after a 12-h incubation by liquid-chromatography-coupled mass spectrometry (LC–MS); assay type: ADME; set-up: dose 2 uM, timepoint 0 vs 12 hours; settings: 2 µM
[17] = The drug is tested on Bacteroides xylanisolvens strain: DSM18836 for biotransformation. The drug concentrations were measured before and after a 12-h incubation by liquid-chromatography-coupled mass spectrometry (LC–MS); settings: 2 µM
[18] = The drug is tested on Odoribacter splanchnicus strain: fecal isolate for biotransformation. The drug concentrations were measured before and after a 12-h incubation by liquid-chromatography-coupled mass spectrometry (LC–MS); settings: 2 µM
[19] = bacteroides eggerthii, 12 h, 2 µM
Description: The drug is tested on Bacteroides eggerthii strain: DSM20697 for biotransformation. The drug concentrations were measured before and after a 12-h incubation by liquid-chromatography-coupled mass spectrometry (LC–MS)

[20] = The drug is tested on Clostridium asparagiforme strain: DSM15981 for biotransformation. The drug concentrations were measured before and after a 12-h incubation by liquid-chromatography-coupled mass spectrometry (LC–MS); assay type: ADME; set-up: dose 2 uM, timepoint 0 vs 12 hours; settings: enterocloster asparagiformis, 2 µM

| Bacterial Biotransformation [1] | Bacterial Biotransformation [2] | Bacterial Biotransformation [3] | Bacterial Biotransformation [4] | Bacterial Biotransformation [5] | Bacterial Biotransformation [6] | Bacterial Biotransformation [7] | Bacterial Biotransformation [8] | Bacterial Biotransformation [9] | Bacterial Biotransformation [10] | Bacterial Biotransformation [11] | Bacterial Biotransformation [12] | Bacterial Biotransformation [13] | Bacterial Biotransformation [14] | Bacterial Biotransformation [15] | Bacterial Biotransformation [16] | Bacterial Biotransformation [17] | Bacterial Biotransformation [18] | Bacterial Biotransformation [19] | Bacterial Biotransformation [20] | Compound |
| --- | --- | --- | --- | --- | --- | --- | --- | --- | --- | --- | --- | --- | --- | --- | --- | --- | --- | --- | --- | --- |
| Compound NOT metabolized | Compound NOT metabolized | Compound NOT metabolized | Compound NOT metabolized | Compound NOT metabolized | Compound NOT metabolized | Compound metabolized |  |  | Compound NOT metabolized |  | Compound NOT metabolized | Compound NOT metabolized | Compound metabolized | Compound metabolized |  | Compound metabolized | Compound metabolized | Compound NOT metabolized | Compound NOT metabolized | CCN(CC)C(C)CN1c2ccccc2Sc2ccccc21 (stereo not drawn) [ETHOPROPAZINE] |
| Compound NOT metabolized | Compound NOT metabolized | Compound metabolized | Compound metabolized | Compound metabolized | Compound metabolized | Compound metabolized | Compound metabolized | Compound NOT metabolized | Compound NOT metabolized | Compound NOT metabolized | Compound metabolized | Compound NOT metabolized | Compound metabolized | Compound metabolized | Compound NOT metabolized | Compound metabolized | Compound metabolized | Compound NOT metabolized |  | COc1ccc2c(c1)c(CC(=O)O)c(C)n2C(=O)c1ccc(Cl)cc1 [INDOMETHACIN] |
|  | Compound NOT metabolized |  | Compound NOT metabolized | Compound NOT metabolized |  | Compound NOT metabolized | Compound NOT metabolized | Compound NOT metabolized |  |  | Compound NOT metabolized | Compound NOT metabolized | Compound NOT metabolized | Compound NOT metabolized | Compound NOT metabolized |  | Compound NOT metabolized | Compound NOT metabolized | Compound NOT metabolized | Cc1ccccc1C(OCCN(C)C)c1ccccc1.O=C(O)CC(O)(CC(=O)O)C(=O)O (stereo not drawn) [ORPHENADRINE CITRATE] |
| Compound NOT metabolized | Compound NOT metabolized | Compound NOT metabolized |  | Compound metabolized | Compound NOT metabolized | Compound metabolized |  | Compound NOT metabolized | Compound NOT metabolized |  |  | Compound NOT metabolized | Compound NOT metabolized | Compound metabolized | Compound NOT metabolized |  |  | Compound NOT metabolized | Compound NOT metabolized | N#Cc1ccc2c(c1)N(CCCN1CCC(O)CC1)c1ccccc1S2 [PERICIAZINE] |

The next lines start with the compound.

| Compound | Bacterial Biotransformation [1] | Bacterial Biotransformation [2] | Bacterial Biotransformation [3] | Bacterial Biotransformation [4] | Bacterial Biotransformation [5] | Bacterial Biotransformation [6] | Bacterial Biotransformation [7] | Bacterial Biotransformation [8] | Bacterial Biotransformation [9] | Bacterial Biotransformation [10] | Bacterial Biotransformation [11] | Bacterial Biotransformation [12] | Bacterial Biotransformation [13] | Bacterial Biotransformation [14] | Bacterial Biotransformation [15] | Bacterial Biotransformation [16] | Bacterial Biotransformation [17] | Bacterial Biotransformation [18] | Bacterial Biotransformation [19] | Bacterial Biotransformation [20] |
| --- | --- | --- | --- | --- | --- | --- | --- | --- | --- | --- | --- | --- | --- | --- | --- | --- | --- | --- | --- | --- |
| CN1CCc2c(c3ccccc3n2Cc2ccccc2)C1.CN1CCc2c(c3ccccc3n2Cc2ccccc2)C1.O=S(=O)(O)c1cccc2c(S(=O)(=O)O)cccc12 | Compound NOT metabolized | Compound NOT metabolized | Compound NOT metabolized | Compound NOT metabolized | Compound NOT metabolized | Compound NOT metabolized | Compound NOT metabolized | Compound NOT metabolized | Compound NOT metabolized | Compound NOT metabolized | Compound NOT metabolized | Compound NOT metabolized | Compound NOT metabolized | Compound NOT metabolized | Compound NOT metabolized | Compound NOT metabolized | Compound NOT metabolized | Compound NOT metabolized | Compound NOT metabolized |  |
| CN(C)CC(c1ccc(O)cc1)C1(O)CCCCC1.O=C(O)CCC(=O)O (stereo not drawn) [DESVENLAFAXINE SUCCINATE] | Compound NOT metabolized | Compound NOT metabolized | Compound NOT metabolized | Compound NOT metabolized | Compound NOT metabolized | Compound NOT metabolized | Compound NOT metabolized |  | Compound NOT metabolized |  |  | Compound NOT metabolized | Compound NOT metabolized | Compound NOT metabolized |  | Compound NOT metabolized | Compound NOT metabolized | Compound NOT metabolized | Compound NOT metabolized | Compound NOT metabolized |
| C[C@H]1O[C@@H](O[C@H]2[C@@H](O)C[C@H](O[C@H]3[C@@H](O)C[C@H](O[C@H]4CC[C@@]5(C)[C@H](CC[C@@H]6[C@@H]5C[C@@H](O)[C@]5(C)[C@@H](C7=CC(=O)OC7)CC[C@]65O)C4)O[C@@H]3C)O[C@@H]2C)C[C@H](O)[C@@H]1O [DIGOXIN] | Compound NOT metabolized | Compound NOT metabolized | Compound NOT metabolized | Compound NOT metabolized | Compound metabolized | Compound metabolized | Compound metabolized | Compound NOT metabolized | Compound NOT metabolized |  |  | Compound metabolized | Compound NOT metabolized | Compound metabolized | Compound metabolized | Compound NOT metabolized | Compound metabolized | Compound metabolized | Compound metabolized | Compound NOT metabolized |
| CN(C)CCOC(C)(c1ccccc1)c1ccccn1.O=C(O)CCC(=O)O (stereo not drawn) [DOXYLAMINE SUCCINATE] | Compound NOT metabolized | Compound NOT metabolized | Compound NOT metabolized | Compound NOT metabolized | Compound NOT metabolized | Compound NOT metabolized | Compound NOT metabolized | Compound NOT metabolized |  |  |  | Compound NOT metabolized | Compound NOT metabolized | Compound NOT metabolized |  | Compound NOT metabolized | Compound NOT metabolized | Compound NOT metabolized | Compound NOT metabolized | Compound NOT metabolized |
| CC(=O)CCCCn1c(=O)c2c(ncn2C)n(C)c1=O [PENTOXIFYLLINE] | Compound NOT metabolized | Compound NOT metabolized | Compound NOT metabolized | Compound NOT metabolized | Compound NOT metabolized | Compound NOT metabolized |  |  |  | Compound NOT metabolized |  | Compound NOT metabolized | Compound NOT metabolized | Compound NOT metabolized | Compound NOT metabolized | Compound NOT metabolized | Compound NOT metabolized | Compound NOT metabolized | Compound NOT metabolized | Compound NOT metabolized |
